Measured values reported in paper PMC4101055 (Antiviral research, 2014).
“Also recorded” adds a separate entry of the source. One block for each compound: values may come before it.

How the values were obtained:
[1] = test system: HBV replication; details: read-out: EC50 against HBV replication; ref Hu et al., 2013; cited from earlier work
[2] = target: recombinant genotype D HBV RNaseH (Hepatitis B virus genotype D subtype ayw, UniProt P03156); test: Oligonucleotide-directed RNA cleavage assay, HBV genotype D RNaseH; type: biochemical; details: for activity against the HBV RNaseH (in words): genotype D and C enzymes, up to 60 µM
recombinant genotype D HBV RNaseH, sequence (P03156 671-832): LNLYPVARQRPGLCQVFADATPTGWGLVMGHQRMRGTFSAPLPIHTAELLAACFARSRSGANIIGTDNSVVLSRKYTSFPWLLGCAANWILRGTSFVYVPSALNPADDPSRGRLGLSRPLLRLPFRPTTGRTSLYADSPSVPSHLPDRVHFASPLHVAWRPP

[3] = test system: HIV RNaseH; details: read-out: IC50 against the HIV RNaseH; ref Billamboz et al., 2011b; cited from earlier work
[4] = test system: HepDES19 cells; test: MTT cytotoxicity assay; type: cell-based, human; details: read-out: Cytotoxicity CC50, MTT, 3 days treatment
[5] = target: genotype C HBV RNaseH (Hepatitis B virus, UniProt P12933); test: Oligonucleotide-directed RNA cleavage assay, HBV genotype C RNaseH; type: biochemical; details: read-out: Genotype C IC50; average ± SD, three or four independent assays
genotype C HBV RNaseH, sequence (P12933 682-843): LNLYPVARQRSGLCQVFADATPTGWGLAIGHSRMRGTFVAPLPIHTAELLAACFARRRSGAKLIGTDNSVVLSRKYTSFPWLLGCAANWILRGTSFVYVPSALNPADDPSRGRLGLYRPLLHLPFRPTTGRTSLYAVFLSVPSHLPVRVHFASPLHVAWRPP

[6] = target: E. coli RNaseH (Escherichia coli, UniProt P0A7Y4); test: Oligonucleotide-directed cleavage assay with E. coli RNaseH; type: biochemical; details: identical conditions to the HBV RNaseH assay
E. coli RNaseH, sequence (P0A7Y4 whole entry): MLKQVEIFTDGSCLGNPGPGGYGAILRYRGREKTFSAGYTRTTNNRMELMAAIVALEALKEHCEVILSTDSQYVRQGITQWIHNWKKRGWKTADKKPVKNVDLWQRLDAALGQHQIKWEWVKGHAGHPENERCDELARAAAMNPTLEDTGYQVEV

[7] = test system: HBV genotype D replication in HepDES19 cells; test: HBV replication assay in HepDES19 cells; type: cell-based, Hepatitis B virus; details: same samples as the EC50 assay

Compound: CC(C)c1ccc(O)c(=O)c(O)c1 [Compound 46, β-thujaplicinol]
EC50 [1]: ~5 µM

activity against the HBV RNaseH (in words) [2]: inactivity
Compound: O=C1c2ccccc2C(=O)N1O [Compound 138]

Compound: COC(=O)C1C(=O)N(O)C(=O)c2ccccc21 (stereo not shown) [Compound 81, 2-hydroxy-4-methoxycarbonylisoquinoline-1,3(2H,4H)-dione]
activity against the HBV RNaseH (in words) [2]: negligible activity
IC50 [3]: 0.061 µM

activity against the HBV RNaseH (in words) [2]: inactivity
Compound: O=C1CCC(=O)N1O [Compound 139]

Compound: O=C1Cc2ccccc2C(=O)N1O [Compound 1, 2-hydroxyisoquinoline-1,3(2H,4H)-dione]
IC50 [2]: 28.1 ± 9.7 µM
CC50 [4]: 74.7 ± 24 µM
IC50 [5]: 30.4 ± 12.9 µM
Effect on E. coli RNaseH activity [6]: not affected; also recorded: inactive
Accumulation of minus-polarity HBV DNA strand [7]: not suppressed
